Test results as given in ChEMBL document CHEMBL1201862, “PubChem BioAssay data set” (2004).
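Step 1: Grow cells in 96-well plates. Step 2: Expose to compound for 48 hours at 5 concentrations. Step 3: Interpolate endpoints linearly; if unreached, use highest concentration. GI50 marks 50% less growth.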 The source made the active and inactive calls. No stated cut-off is given here; in the data, active = GI50 up to about 1.1 µM and inactive = higher.

What was measured:
Assay in all cases: growth of human tumour cells (NCI), 48 h
[1] = test system: OVCAR-3
[2] = test system: 786-0
[3] = test system: RPMI-8226
[4] = test system: CCRF-CEM
[5] = test system: HOP-62
[6] = test system: SF-295
[7] = test system: BT-549
[8] = test system: NCI-H522
[9] = test system: UACC-257
[10] = test system: LOX IMVI
[11] = test system: CAKI-1
[12] = test system: HCT-116
[13] = test system: SK-MEL-28
[14] = test system: HCT-15
[15] = test system: SF-268
[16] = test system: HL-60
[17] = test system: EKVX
[18] = test system: MCF7
[19] = test system: T47D
[20] = test system: COLO 205
[21] = test system: SK-MEL-5
[22] = test system: DU-145
[23] = test system: TK-10
[24] = test system: A549
[25] = test system: SW-620
[26] = test system: HT-29
[27] = test system: MDA-MB-231
[28] = test system: OVCAR-4
[29] = test system: PC-3
[30] = test system: OVCAR-8
[31] = test system: SK-OV-3
[32] = test system: MDA-N
[33] = test system: RXF 393
[34] = test system: OVCAR-5
[35] = test system: SNB-75
[36] = test system: MDA-MB-435
[37] = test system: A498
[38] = test system: SN12C
[39] = test system: HCC 2998
[40] = test system: KM12
[41] = test system: SK-MEL-2
[42] = test system: M14
[43] = test system: NCI-H23
[44] = test system: NCI/ADR-RES
[45] = test system: IGROV-1
[46] = test system: UACC-62
[47] = test system: Malme-3M
[48] = test system: UO-31
[49] = test system: Hs-578T
[50] = test system: U-251
[51] = test system: MOLT-4
[52] = test system: HOP-92
[53] = test system: SNB-19
[54] = test system: ACHN
[55] = test system: K562
[56] = test system: NCI-H226
[57] = test system: NCI-H460
[58] = test system: SF-539

Measured: GI50

C/C(C[n+]1ccccc1)=N\N=C(N)N
> 100 µM: [14]
inactive: [1] > 100 µM | [2] > 100 µM | [3] > 100 µM | [4] > 100 µM | [5] > 100 µM | [6] > 100 µM | [7] > 100 µM | [8] > 100 µM | [9] > 100 µM | [10] > 100 µM | [11] > 100 µM | [12] > 100 µM | [13] > 100 µM | [15] > 100 µM | [16] > 100 µM | [17] > 100 µM | [18] > 100 µM | [19] > 100 µM | [20] > 100 µM | [21] > 100 µM | [22] > 100 µM | [23] > 100 µM | [24] > 100 µM | [25] > 100 µM | [26] > 100 µM | [27] > 100 µM | [28] > 100 µM | [29] > 100 µM | [30] > 100 µM | [31] > 100 µM | [32] > 100 µM | [33] > 100 µM | [34] > 100 µM | [35] > 100 µM | [36] > 100 µM | [37] > 100 µM | [38] > 100 µM | [39] > 100 µM | [40] > 100 µM | [41] 73.8 µM | [42] > 100 µM | [43] > 100 µM | [44] > 100 µM | [45] > 100 µM | [46] > 100 µM | [47] > 100 µM | [48] > 100 µM | [49] > 100 µM | [50] > 100 µM | [51] > 100 µM | [52] > 100 µM | [53] > 100 µM | [54] > 100 µM | [55] > 100 µM | [56] > 100 µM | [57] > 100 µM

O=C1/C(=N\n2c(S)nnc2-c2ccncc2)c2cc(Cl)ccc2N1CN1CCCCC1
inactive: [1] 73.8 µM | [2] 27.7 µM | [4] 6.97 µM | [5] 30.3 µM | [6] 94 µM | [7] 25.9 µM | [8] 13.7 µM | [9] 23.4 µM | [10] 17.5 µM | [11] 33.7 µM | [12] 37.8 µM | [58] 35 µM | [13] 65.3 µM | [15] 53.5 µM | [16] 13.1 µM | [17] 4.65 µM | [18] 31.2 µM | [19] 23.1 µM | [20] 41 µM | [21] 48.6 µM | [22] 29.6 µM | [23] 30.3 µM | [24] 53.2 µM | [25] 18.6 µM | [26] 31.2 µM | [27] > 100 µM | [28] 32.2 µM | [29] 34.5 µM | [30] 31.8 µM | [31] 39.5 µM | [32] 31.5 µM | [33] 15.8 µM | [34] > 100 µM | [35] 34.3 µM | [36] 32.2 µM | [37] 50.9 µM | [38] 55.8 µM | [40] 38.3 µM | [41] 20.9 µM | [42] 44.7 µM | [43] 46.6 µM | [44] 57.5 µM | [45] 16.1 µM | [46] 34.4 µM | [47] > 100 µM | [48] 56.5 µM | [49] 19.8 µM | [50] 40.4 µM | [51] 12.3 µM | [52] 56 µM | [53] 76 µM | [54] 50.4 µM | [55] 20.5 µM | [56] > 100 µM | [57] 36.8 µM
25.4 µM: [14]

O=C(O)c1cccc2cccc(-c3cccc4cccc(C(=O)O)c34)c12
> 100 µM: [14]
inactive: [1] > 100 µM | [2] > 100 µM | [4] > 100 µM | [5] > 100 µM | [6] > 100 µM | [7] > 100 µM | [8] > 100 µM | [9] > 100 µM | [10] > 100 µM | [11] > 100 µM | [12] > 100 µM | [58] > 100 µM | [13] > 100 µM | [15] > 100 µM | [16] > 100 µM | [17] > 100 µM | [18] > 100 µM | [19] > 100 µM | [20] > 100 µM | [21] > 100 µM | [22] > 100 µM | [23] > 100 µM | [24] > 100 µM | [25] > 100 µM | [26] > 100 µM | [27] > 100 µM | [28] > 100 µM | [29] > 100 µM | [30] > 100 µM | [31] > 100 µM | [32] > 100 µM | [33] > 100 µM | [34] > 100 µM | [35] > 100 µM | [36] > 100 µM | [37] > 100 µM | [38] > 100 µM | [39] > 100 µM | [40] > 100 µM | [41] > 100 µM | [42] > 100 µM | [43] > 100 µM | [44] > 100 µM | [45] > 100 µM | [46] > 100 µM | [47] > 100 µM | [48] > 100 µM | [49] > 100 µM | [50] > 100 µM | [53] > 100 µM | [54] > 100 µM | [55] > 100 µM | [56] > 100 µM | [57] > 100 µM

O=[N+]([O-])C(C(Cl)=C(Cl)Cl)=C(N(Cc1ccccc1)Cc1ccccc1)N(Cc1ccccc1)Cc1ccccc1
> 100 µM: [14]
inactive: [1] > 100 µM | [2] 48.8 µM | [4] 22.2 µM | [5] 43.7 µM | [6] 27.9 µM | [7] > 100 µM | [8] > 100 µM | [9] > 100 µM | [10] 32.4 µM | [11] > 100 µM | [12] 42.1 µM | [58] 30.3 µM | [13] > 100 µM | [15] > 100 µM | [16] 17.3 µM | [17] 66.7 µM | [18] > 100 µM | [19] > 100 µM | [20] 57 µM | [21] 42.8 µM | [22] > 100 µM | [23] > 100 µM | [24] > 100 µM | [25] > 100 µM | [26] 33 µM | [27] 70.6 µM | [29] 53.7 µM | [30] > 100 µM | [31] 38.1 µM | [32] 45.3 µM | [33] 92.9 µM | [34] 30.2 µM | [35] > 100 µM | [36] 28.2 µM | [37] 30.5 µM | [38] 29.3 µM | [39] 24 µM | [40] > 100 µM | [41] 36.4 µM | [42] 34.8 µM | [43] > 100 µM | [44] > 100 µM | [45] 45.1 µM | [46] > 100 µM | [47] 34 µM | [48] 45.8 µM | [49] > 100 µM | [50] > 100 µM | [51] > 100 µM | [52] 15.6 µM | [53] > 100 µM | [54] 82 µM | [55] 33.7 µM | [56] 36.6 µM | [57] 56.9 µM

CN(CCc1ccc(N)cc1)[C@H]1CCCC[C@H]1N1CCCC1
> 100 µM: [14]
inactive: [1] > 100 µM | [2] > 100 µM | [3] 66.7 µM | [5] > 100 µM | [6] > 100 µM | [7] > 100 µM | [8] > 100 µM | [9] > 100 µM | [10] > 100 µM | [11] > 100 µM | [12] > 100 µM | [13] > 100 µM | [15] > 100 µM | [16] > 100 µM | [17] > 100 µM | [18] > 100 µM | [19] > 100 µM | [20] > 100 µM | [21] > 100 µM | [22] > 100 µM | [23] > 100 µM | [24] > 100 µM | [25] > 100 µM | [26] 78.2 µM | [27] > 100 µM | [28] > 100 µM | [29] > 100 µM | [30] > 100 µM | [31] > 100 µM | [32] > 100 µM | [33] > 100 µM | [34] > 100 µM | [35] > 100 µM | [36] > 100 µM | [37] > 100 µM | [38] > 100 µM | [39] 51.9 µM | [40] > 100 µM | [41] > 100 µM | [42] > 100 µM | [43] > 100 µM | [44] > 100 µM | [45] > 100 µM | [46] > 100 µM | [47] > 100 µM | [48] > 100 µM | [49] > 100 µM | [50] > 100 µM | [51] 98.4 µM | [52] > 100 µM | [53] > 100 µM | [54] > 100 µM | [55] 70.3 µM | [56] > 100 µM | [57] > 100 µM
